According to PubChem BioAssay AID1194 (EPA DSSTox, 2008):
Calls of active or inactive are those of the source.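 Rule for the calls: active = chemicals rated mutagenic or weakly mutagenic in the Salmonella bacterial test by one literature review, or positive overall by another; inconclusive = no clear call, values can overlap the other calls; inactive = the rest.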

test system: Salmonella typhimurium Ames mutagenicity, literature compiled; assay: DSSTox (CPDBAS) Carcinogenic Potency Database Salmonella Mutagenicity
How it was run: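 Calls derive from published evaluations rather than new testing; overall "positive" in EPA Gene-Tox, or "mutagenic"/"weakly mutagenic" per Zeiger, counts as active.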

Compound	outcome
ClC(Cl)(Cl)c1ccccc1	active
O=C1CCCCCN1	inactive; active
CC(C)(C)c1cc(O)ccc1O	inactive
c1ccc2c(c1)ccc1cc3c(ccc4ccccc43)cc12	active
Cc1cc(C)nc(NS(=O)(=O)c2ccc(N)cc2)n1	inactive
Nc1c(Br)cc(Br)c2c1C(=O)c1ccccc1C2=O	active
Cc1ccc(N=Nc2c(O)c(S(=O)(=O)O)cc3ccc(S(=O)(=O)O)cc23)c(C)c1	active
O=C1c2ccccc2C(=O)N1SC(Cl)(Cl)Cl	active
CC(=O)Nc1ccc2c(c1)Cc1cc(NC(C)=O)ccc1-2	active
ClCC1CO1 (configuration not stated)	active; inactive
C=C(F)F	active
CNC[C@H](O)c1ccc(O)c(O)c1	inactive; active
CNC(=O)CSP(=S)(OC)OC	active
Cc1ncc([N+](=O)[O-])n1C	active
CCOc1ccc(NC(C)=O)cc1N	active
C1OC1C1CO1 (configuration not stated)	active
CC1CN(N=O)CC(C)O1 (configuration not stated)	active
CCNc1nc(Cl)nc(NC(C)C)n1	inactive; active
CCN(Cc1cccc(S(=O)(=O)[O-])c1)c1ccc(C(=C2C=CC(=[N+](C)C)C=C2)c2ccc(N(CC)Cc3cccc(S(=O)(=O)O)c3)cc2)cc1	active
C=CCN(CC=C)N=O	active
ClC1(Cl)C2(Cl)C3(Cl)C4(Cl)C(Cl)(Cl)C5(Cl)C3(Cl)C1(Cl)C5(Cl)C24Cl (configuration not stated)	inactive
[Na+]	inactive
O=S(=O)(c1ccc(Cl)cc1)c1ccc(Cl)cc1	inactive

Compound	outcome
O=c1c(O)c(-c2ccc(O)c(O)c2)oc2cc(O)cc(O)c12	active; inactive
COP(=O)(OC)C(O)C(Cl)(Cl)Cl (configuration not stated)	active
Nc1ncn[nH]1	inactive; active
O[C@H]([C@H](O)[C@@H](O)CBr)[C@H](O)CBr	active; inactive
CCn1cc(C(=O)O)c(=O)c2ccc(C)nc21	inactive
Clc1cc2c(cc1Cl)Oc1cc(Cl)c(Cl)cc1O2	inactive; active
CNc1ccc(N(CCO)CCO)cc1[N+](=O)[O-]	active
C=CC(=C)C	inactive
Nc1c(Cl)c(Cl)nc(C(=O)O)c1Cl	inactive; active
Oc1ccccc1	inactive
NCCS(=O)(=O)O	inactive; active
CCn1c2ccccc2c2cc(N)ccc21	active
ClCC(Cl)Cl	inactive
O=[N+]([O-])c1ccc(-c2nc(N3CCOCC3)c3ccccc3n2)s1	active
O=C1C=C2C(=CCOC2O)O1 (configuration not stated)	inactive; active
C=CC=O	active; inactive
Cc1ccc2c(c1[N+](=O)[O-])C(=O)c1ccccc1C2=O	active; inactive
CCNC(=O)Nc1ncc([N+](=O)[O-])s1	active; inactive
Nc1ccc(-c2ccccc2)cc1	active
CC/C(=C(/CC)c1ccc(O)cc1)c1ccc(O)cc1	inactive
NC(N)=NC(N)=NCCc1ccccc1	inactive; active
CCCN(CCC)N=O	active
COc1cc(-c2ccc(N=C=O)c(OC)c2)ccc1N=C=O	active

Compound	outcome
O=NN1CCNCC1	active
CC(C)O	inactive; active
O=C1O[C@H]([C@H](O)CO)C(O)=C1O	inactive
CC1CCC(C(C)C)C(O)C1 (configuration not stated)	inactive; active
CN(C)c1ccc(C(=N)c2ccc(N(C)C)cc2)cc1	active
O=NN(CCO)CCO	active; inactive
COC(=O)C(c1ccccc1)C1CCCCN1 (configuration not stated)	inactive
CC(=O)Nc1ccc(O)cc1	inactive; active
S=P(N1CC1)(N1CC1)N1CC1	active; inactive
Nc1ccccc1C(=O)O	inactive
NC(=O)Cc1cccc2ccccc12	active
Cc1cc2c(nc1N)[nH]c1ccccc12	active; inactive
OCc1ccccc1	inactive
O=[N+]([O-])c1ccc(NCCO)c(OCCO)c1	active
O=CNc1nc(-c2ccc([N+](=O)[O-])o2)cs1	active; inactive
Cc1cc(C)c(N=Nc2c(O)c(S(=O)(=O)O)cc3cc(S(=O)(=O)O)ccc23)cc1C	inactive; active
CN1CCCC1=O	inactive; active
O=C(O)COc1ccc(Cl)cc1Cl	inactive
c1ccccc1	inactive; active
CNN	active; inactive
O=C(O)[C@@H]1[C@H](C(=O)O)[C@@]2(Cl)C(Cl)=C(Cl)[C@]1(Cl)C2(Cl)Cl	inactive; active
